Columns and labels:
786-0 = experiment: Cytotoxicity against human 786-0 cells assessed as cell growth at 10^-6 M after 24 hrs by SRB assay; type: functional; details: 786-0, 24 h, read-out: Activity
EKVX = experiment: Cytotoxicity against human EKVX cells after 24 hrs by SRB assay; type: functional
[1] = Cytotoxicity against human SNB19 cells assessed as cell growth at 10^-8 M after 24 hrs by SRB assay; type: functional; details: SNB-19, 24 h, read-out: Activity
[2] = Cytotoxicity against human UO31 cells assessed as cell growth at 10^-7 M after 24 hrs by SRB assay; type: functional; details: UO-31, 24 h, read-out: Activity
[3] = Cytotoxicity against human PC3 cells assessed as cell growth at 10^-7 M after 24 hrs by SRB assay; type: functional; details: PC-3, 24 h, read-out: Activity
SK-MEL-28 [4] = experiment: Cytotoxicity against human SK-MEL-28 cells after 24 hrs by SRB assay; type: functional, cell-based; details: SK-MEL-28, 24 h
[5] = Cytotoxicity against human IGROV1 cells assessed as cell growth at 10^-5 M after 24 hrs by SRB assay; type: functional; details: IGROV-1, 24 h, read-out: Activity
A549 = experiment: Cytotoxicity against human A549 cells after 24 hrs by SRB assay; type: functional; details: A549, 24 h
MDA-MB-435 [6] = experiment: Cytotoxicity against human MDA-MB-435 cells assessed as cell growth at 10^-5 M after 24 hrs by SRB assay; type: functional; details: MDA-MB-435, 24 h, read-out: Activity
[7] = Cytotoxicity against human HCT15 cells assessed as cell growth at 10^-8 M after 24 hrs by SRB assay; type: functional; details: HCT-15, 24 h, read-out: Activity
[8] = Cytotoxicity against human MOLT4 cells assessed as cell growth at 10^-7 M after 24 hrs by SRB assay; type: functional; details: MOLT-4, 24 h, read-out: Activity
[9] = Cytotoxicity against human HOP92 cells assessed as cell growth at 10^-5 M after 24 hrs by SRB assay; type: functional; details: HOP-92, 24 h, read-out: Activity
[10] = Cytotoxicity against human UACC62 cells assessed as cell growth at 10^-7 M after 24 hrs by SRB assay; type: functional; details: UACC-62, 24 h, read-out: Activity
NCI-H322M = experiment: Cytotoxicity against human NCI-H322M cells assessed as cell growth at 10^-4 M after 24 hrs by SRB assay; type: functional; details: read-out: Activity
K562 = experiment: Cytotoxicity against human K562 cells assessed as cell growth at 10^-8 M after 24 hrs by SRB assay; type: functional; details: K562, 24 h, read-out: Activity
[11] = Cytotoxicity against human Caki1 cells assessed as cell growth at 10^-5 M after 24 hrs by SRB assay; type: functional; details: CAKI-1, 24 h, read-out: Activity
[12] = Cytotoxicity against human RXF393 cells assessed as cell growth at 10^-7 M after 24 hrs by SRB assay; type: functional; details: RXF 393, 24 h, read-out: Activity
SK-MEL-28 [13] = experiment: Cytotoxicity against human SK-MEL-28 cells assessed as cell growth at 10^-5 M after 24 hrs by SRB assay; type: functional; details: SK-MEL-28, 24 h, read-out: Activity
[14] = Cytotoxicity against human HOP92 cells assessed as cell growth at 10^-6 M after 24 hrs by SRB assay; type: functional; details: HOP-92, 24 h, read-out: Activity
[15] = Cytotoxicity against human Hs 578T cells assessed as cell growth at 10^-4 M after 24 hrs by SRB assay; type: functional; details: read-out: Activity
[16] = Cytotoxicity against human MOLT4 cells assessed as cell growth at 10^-4 M after 24 hrs by SRB assay; type: functional; details: MOLT-4, 24 h, read-out: Activity
SK-MEL-2 = experiment: Cytotoxicity against human SK-MEL-2 cells assessed as cell growth at 10^-7 M after 24 hrs by SRB assay; type: functional; details: SK-MEL-2, 24 h, read-out: Activity
[17] = Cytotoxicity against human OVCAR8 cells assessed as cell growth at 10^-5 M after 24 hrs by SRB assay; type: functional; details: OVCAR-8, 24 h, read-out: Activity
[18] = Cytotoxicity against human Hs 578T cells after 24 hrs by SRB assay; type: functional
[19] = Cytotoxicity against human RPMI8226 cells after 24 hrs by SRB assay; type: functional; details: RPMI-8226, 24 h
[20] = Cytotoxicity against human UO31 cells assessed as cell growth at 10^-4 M after 24 hrs by SRB assay; type: functional; details: UO-31, 24 h, read-out: Activity
[21] = Cytotoxicity against human SF268 cells assessed as cell growth at 10^-8 M after 24 hrs by SRB assay; type: functional; details: SF-268, 24 h, read-out: Activity
[22] = Cytotoxicity against human HCT116 cells assessed as cell growth at 10^-4 M after 24 hrs by SRB assay; type: functional; details: HCT-116, 24 h, read-out: Activity
[23] = Cytotoxicity against human BT549 cells assessed as cell growth at 10^-6 M after 24 hrs by SRB assay; type: functional; details: BT-549, 24 h, read-out: Activity
ACHN = experiment: Cytotoxicity against human ACHN cells assessed as cell growth at 10^-8 M after 24 hrs by SRB assay; type: functional; details: read-out: Activity
MDA-MB-435 [24] = experiment: Cytotoxicity against human MDA-MB-435 cells assessed as cell growth at 10^-6 M after 24 hrs by SRB assay; type: functional; details: MDA-MB-435, 24 h, read-out: Activity
[25] = Cytotoxicity against human COLO205 cells assessed as cell growth at 10^-5 M after 24 hrs by SRB assay; type: functional; details: COLO 205, 24 h, read-out: Activity
[26] = Cytotoxicity against human SW620 cells assessed as cell growth at 10^-8 M after 24 hrs by SRB assay; type: functional; details: SW-620, 24 h, read-out: Activity
U-251 = experiment: Cytotoxicity against human U251 cells assessed as cell growth at 10^-4 M after 24 hrs by SRB assay; type: functional; details: U-251, 24 h, read-out: Activity
[27] = Cytotoxicity against human SNB19 cells assessed as cell growth at 10^-7 M after 24 hrs by SRB assay; type: functional; details: SNB-19, 24 h, read-out: Activity
NCI-H522 = experiment: Cytotoxicity against human NCI-H522 cells assessed as cell growth at 10^-4 M after 24 hrs by SRB assay; type: functional; details: NCI-H522, 24 h, read-out: Activity
[28] = read-out: LC50 (the source's name)
[29] = read-out: pLC50 (the source's name) (converted)

## O=C(Nc1cc(-c2cccnc2)nc(NCCCN2CCOCC2)n1)c1cc(Br)cc(C(F)(F)F)c1
786-0
  growth at 1 µM: 81%
EKVX; read-out: GI50
  GI50: 2.72 µM
EKVX; [28]
  CC50: 42.7 µM
EKVX; read-out: TGI
  TGI: 14.4 µM
EKVX; read-out: pGI50 (converted)
  GI50: 2.69 µM
EKVX; [29]
  CC50: 42.7 µM
EKVX; read-out: pTGI (converted)
  TGI: 14.5 µM
[1]
  growth at 0.01 µM: 97%
[2]
  growth at 0.1 µM: 90%
[3]
  growth at 0.1 µM: 95%
SK-MEL-28 [4]
  IC50: 1.73 µM
SK-MEL-28 [4]; read-out: GI50
  GI50: 1.73 µM
SK-MEL-28 [4]; [28]
  CC50: 7.02 µM
SK-MEL-28 [4]; read-out: TGI
  TGI: 3.48 µM
SK-MEL-28 [4]; read-out: pGI50 (converted)
  GI50: 1.74 µM
SK-MEL-28 [4]; [29]
  CC50: 7.08 µM
SK-MEL-28 [4]; read-out: pTGI (converted)
  TGI: 3.47 µM
[5]
  growth at 10 µM: 29%
A549; read-out: GI50
  GI50: 10.1 µM
A549; [28]
  CC50: 48.8 µM
A549; read-out: TGI
  TGI: 22.2 µM
A549; read-out: pGI50 (converted)
  GI50: 10 µM
A549; [29]
  CC50: 49 µM
A549; read-out: pTGI (converted)
  TGI: 22.4 µM
MDA-MB-435 [6]
  growth at 10 µM: -90%
[7]
  growth at 0.01 µM: 91%
[8]
  growth at 0.1 µM: 95%
[9]
  growth at 10 µM: -10%
[10]
  growth at 0.1 µM: 90%
NCI-H322M
  growth at 100 µM: -90%
K562
  growth at 0.01 µM: 107%
[11]
  growth at 10 µM: 3%
[12]
  growth at 0.1 µM: 97%
SK-MEL-28 [13]
  growth at 10 µM: -75%
[14]
  growth at 1 µM: 75%
[15]
  growth at 100 µM: -35%
[16]
  growth at 100 µM: -67%
SK-MEL-2
  growth at 0.1 µM: 95%
[17]
  growth at 10 µM: -7%
[18]; read-out: GI50
  GI50: 2.71 µM
[18]; [28]
  CC50: > 100 µM
[18]; read-out: TGI
  TGI: 8.51 µM
[18]; read-out: pGI50 (converted)
  GI50: 2.69 µM
[18]; [29]
  CC50: 100 µM
[18]; read-out: pTGI (converted)
  TGI: 8.51 µM
[19]; read-out: GI50
  GI50: 3.15 µM
[19]; [28]
  CC50: > 100 µM
[19]; read-out: TGI
  TGI: 9.69 µM
[19]; read-out: pGI50 (converted)
  GI50: 3.16 µM
[19]; [29]
  CC50: > 100 µM
[19]; read-out: pTGI (converted)
  TGI: 9.77 µM
[20]
  growth at 100 µM: -90%
[21]
  growth at 0.01 µM: 97%
[22]
  growth at 100 µM: -88%
[23]
  growth at 1 µM: 83%
ACHN
  growth at 0.01 µM: 95%
MDA-MB-435 [24]
  growth at 1 µM: 90%
[25]
  growth at 10 µM: -79%
[26]
  growth at 0.01 µM: 98%
U-251
  growth at 100 µM: -93%
[27]
  growth at 0.1 µM: 98%
NCI-H522
  growth at 100 µM: -82%
